Measured values reported in ChEMBL document CHEMBL1157495 (Bioorg Med Chem Lett, 2008).
pIC50: −log10 of the molar value.

Legend:
[1] = tested on: Plasmodium berghei; experiment: (§1) Antimalarial activity after 10 days against Plasmodium berghei ANKA infected Anopheles stephensi at 10 uM/kg; assay type: functional
[2] = tested on: Plasmodium berghei; experiment: as §1; assay type: functional; remark: listed apart in the source
[3] = tested on: Plasmodium berghei; experiment: (§2) Antimalarial activity after 10 days against Plasmodium berghei ANKA infected Anopheles stephensi at 50 uM/kg; assay type: functional
[4] = tested on: Plasmodium falciparum; experiment: Antiplasmodial activity against chloroquine-resistant Plasmodium falciparum W2; assay type: functional, organism-based
[5] = tested on: Plasmodium berghei; experiment: as §2; assay type: functional; remark: listed apart in the source

Compound	Activity [1] [%]	Activity [2]	Activity [3]	pIC50 [4]	Activity [5] [%]
COc1cc(NC(C)CCCN2C(=O)CN(C(=O)CN)C2(C)C)c2ncccc2c1 (stereo not drawn)	42	1.08	0.79		
COc1cc(NC(C)CCCN2C(=O)[C@H](C)NC2(C)C)c2ncccc2c1 (stereo partly drawn)				< 4.30	
COc1cc(NC(C)CCCN2C(=O)[C@H](CCSC)N(C(=O)CN)C2(C)C)c2ncccc2c1 (stereo partly drawn)				5.48	
COc1cc(NC(C)CCCN)c2ncccc2c1 (stereo not drawn) [PRIMAQUINE]	41.7	2	0.95		42.9
COc1cc(NC(C)CCCN2C(=O)CN(C(=O)[C@H](C)N)C2(C)C)c2ncccc2c1 (stereo partly drawn)	67.9	9.71	1.34	5.10	40.1
COc1cc(NC(C)CCCN2C(=O)[C@H](C)N(C(=O)CN)C2(C)C)c2ncccc2c1 (stereo partly drawn)				5.26	
COc1cc(NC(C)CCCN2C(=O)CN(C(=O)[C@@H](N)C(C)C)C2(C)C)c2ncccc2c1 (stereo partly drawn)				5.10	
COc1cc(NC(C)CCCN2C(=O)CN(C(=O)[C@@H](N)CC(C)C)C2(C)C)c2ncccc2c1 (stereo partly drawn)				5.20	
COc1cc(NC(C)CCCN2C(=O)CN(C(=O)[C@@H](N)CCSC)C2(C)C)c2ncccc2c1 (stereo partly drawn)				4.92	
